The values that follow come from patent publication US7128898B2, “Method of minimizing cell lysis and toothpaste and mouthwash with reduced irritancy” (priority 1999, dated 2006).

In this series the test system is red blood cells. The series can be described thus: Red blood cell haemolysis assay. Type of series: cell-based.

Excerpt: In order to determine the relative toxicity or irritancy levels of various toothpastes and mouthwashes, a red blood cell heamolysis assay was employed to obtain information on the effects of these substances on cell membrane integrity. The Red Blood Cell assay provides a simple test system that uses easily obtainable cells and is characterized by defined and objective endpoints. […] Haemoglobin release is a useful endpoint of cell membrane integrity. It is therefore highly suitable as a screening assay in a first-order in vitro test battery for the assessment of potential toxicity to tissue, including tissues of the oral cavity.
To assess the membranolytic activity of test materials. The test materials are incubated with isolated red blood cells. The degree of damage to the red blood cell membrane is quantified by spectro-photometric measurement of released haemoglobin.
Red blood cells are isolated concentrations of the test materials defined from results of a range finding study; released is measured at 541 nm and the concentration resulting in 50% hemolysis (relative to a totally lysed sample) calculated. […]
(b) After the final centrifugation, the packed cell volume is diluted with phosphate buffered saline (PBS) to give an approximate 2% erythrocyte suspension. […] The exact volume of PBS required for a 2% suspension is calculated from the optical density and adjusted accordingly. […]

Consider `CCCCCCCCCCCCCCCC[n+]1ccccc1` [CPC, Cetylpyridinium Chloride], for which, under “0.05% CPC”, the “% Hemolysis (Individual Components)” value was determined as 92.36%.
As for `CC(=O)C1C(=O)C=C(C)OC1=O` (centres unmarked) [DHA, dehydroacetic acid], the “% Hemolysis (Individual Components)” value (0.10% DHA) is given as 3.24%.
